According to patent publication US20250049776A1, “AUTOPHAGY INDUCING COMPOUNDS AND USES THEREOF, IN PARTICULAR FOR A SYSTEMIC TREATMENT OF DISEASES AND CONDITIONS” (Samsara Therapeutics Inc., priority 2021, published 2025):
Where two headings read alike, the source gives them in different places.

Test system: Human osteosarcoma U20S cells
Assay: Assay to measure lysosome and autolysosome formation (acidic vesicle formation, LysoView/LysoTracker staining)
Format: cell-based
Settings: for activation at 0.8 µM: Homo sapiens, U2OS cells, concentration of 0.8 μM; for increase in acidic vesicle formation / acidic vesicle formation relative to a DMSO-treated control: U20S cells; for increase in acidic vesicle formation: relative to DMSO-treated control (10 μM); for acidic vesicle formation relative to a DMSO-treated control: concentration of 10 μM, 24 hours
Description: Lysosomes play a fundamental role in the autophagic pathway by fusing with autophagosomes and creating ‘autolysosomes’ in order to digest their contents. Stimulation of lysosome and autolysosome formation by a compound is indicative of a stimulation of autophagy. The ability of compounds to stimulate lysosome and autolysosome formation, and thus autophagy, in live cells was assessed via fluorescent microscopy using various fluorescent stains for labelling and tracking acidic organelles (including lysosomes and autolysosomes) such as: LysoView™ 650 (70059 and 70059-T, Biotium), LysoViewTM633 (70058 and 70058-T, Biotium) and LysoTracker™ Deep Red (L12492, ThermoFisher Scientific). The cellular phenotype was quantitatively assessed for the induction of acidic vesicle formation and compared to a non-treated control, thus providing a measure of the ability of the compound under investigation to stimulate autophagy.
Representative procedure using LysoView™633 dye or LysoTracker™ Deep Red dye: Human osteosarcoma U20S cells (40,000 cells/well) were seeded in a 24 well glass bottom plate (Sensoplate, Greiner Bio-One) and were incubated overnight in a humidified atmosphere at 37° C. and 5% CO2. Cells were grown in DMEM (Gibco) supplemented with 10% Fetal Bovine Serum (FBS) and 100 units/ml penicillin and 100 μg/ml streptomycin (Invitrogen). After the attachment period, cells were treated with different compounds of interest (at various concentrations in DMSO) or DMSO (non-treated control) in cell culture medium and were incubated for 24 hours. Compound-containing medium was removed and cells were incubated with pre-warmed cell culture medium containing 1× LysoView™ 633 (70058 and 70058-T, Biotium) or 50 nM LysoTracker™ Deep Red (L12492, ThermoFisher Scientific) for 45 minutes at 37° C. Finally, cell nuclei were stained for 10 minutes using Hoechst 33342 (1 μg/mL) and then the medium was replaced with fresh medium. The 24 well plate was then fitted into a heated stage on the microscope and cells maintained at 37° C. Images were captured using appropriate filter set for Cy5 and DAPI detection with the EVOS M7000 Microscope (ThermoFisher Scientific). The cellular phenotype was visually assessed for the induction of acidic vesicle formation relative to the non-treated control; multiple images were acquired and analyzed using ImageJ or Cell Profiler.

[1] = read-out: Activity (percentage increase in acidic vesicle formation over the DMSO-treated control), Table 2
[2] = read-out: Activity (percentage increase in acidic vesicle formation), Table 2a Preferred compounds

SMILES	activation at 0.8 µM [1] [%]	other results
CC(C)N(C(=O)c1csc(-c2cnn(-c3ccccc3C(F)(F)F)c2)n1)C1CCNCC1 [Compound 47, N-(piperidin-4-yl)-N-(propan-2-yl)-2-{1-[2-(trifluoromethyl)phenyl]-1H-pyrazol-4-yl}-1,3-thiazole-4-carboxamide]	30 to 50	–
COc1cccc(-n2cc(-c3nc(C(=O)N4CCC[C@@H]4CN)cs3)cn2)c1 [Compound 50, 1-[(2R)-1-{2-[1-(3-methoxyphenyl)-1H-pyrazol-4-yl]-1,3-thiazole-4-carbonyl}pyrrolidin-2-yl]methanamine]	50 to 100	activation at 0.8 µM [2]: 50 to 100%
CCCN(C(=O)c1csc(-c2cnn(-c3ccccc3F)c2)n1)[C@@H]1CCNC1 [Compound 97, 2-[1-(2-fluorophenyl)-1H-pyrazol-4-yl]-N-propyl-N-[(3R)-pyrrolidin-3-yl]-1,3-thiazole-4-carboxamide]	30 to 50	–
O=C(NCC1CCNC1)c1csc(-c2cnn(-c3ccccc3)c2)n1 (centres unmarked) [Compound 179, 2-(1-phenyl-1H-pyrazol-4-yl)-N-[(pyrrolidin-3-yl)methyl]-1,3-thiazole-4-carboxamide]	30 to 50	–
CCCN(C(=O)c1csc(-c2cnn(-c3cccc(OC)c3)c2)n1)[C@@H]1CCNC1 [Compound 56, 2-[1-(3-methoxyphenyl)-1H-pyrazol-4-yl]-N-propyl-N-[(3R)-pyrrolidin-3-yl]-1,3-thiazole-4-carboxamide]	10 to 30	–
CC(C)N(C(=O)c1csc(-c2cnn(-c3ncccn3)c2)n1)C1CCNCC1 [Compound 329, N-(piperidin-4-yl)-N-(propan-2-yl)-2-[1-(pyrimidin-2-yl)-1H-pyrazol-4-yl]-1,3-thiazole-4-carboxamide]	–	increase in acidic vesicle formation: only a slight increase
Cc1ccccc1-n1cc(-c2nc(C(=O)N3CCC[C@@H]3CN)cs2)cn1 [Compound 86, 1-[(2R)-1-{2-[1-(2-methylphenyl)-1H-pyrazol-4-yl]-1,3-thiazole-4-carbonyl}pyrrolidin-2-yl]methanamine]	30 to 50	–
O=C(c1csc(-c2cnn(-c3ccccc3)c2)n1)N1CCNCC1 [Compound 104, 1-[2-(1-phenyl-1H-pyrazol-4-yl)-1,3-thiazole-4-carbonyl]piperazine]	10 to 30	–
CCCN(C(=O)c1csc(-c2cnn(-c3cccc(C)c3)c2)n1)[C@@H]1CCNC1 [Compound 29, 2-[1-(3-methylphenyl)-1H-pyrazol-4-yl]-N-propyl-N-[(3R)-pyrrolidin-3-yl]-1,3-thiazole-4-carboxamide]	30 to 50	–
CCCN(C(=O)c1csc(-c2cnn(-c3cccc(OC)c3)c2)n1)[C@H]1CCNC1 [Compound 51, 2-[1-(3-methoxyphenyl)-1H-pyrazol-4-yl]-N-propyl-N-[(3S)-pyrrolidin-3-yl]-1,3-thiazole-4-carboxamide]	30 to 50	–
NCCCNC(=O)c1csc(-c2cnn(-c3ccccc3)c2)n1 [Compound 159, N-(3-aminopropyl)-2-(1-phenyl-1H-pyrazol-4-yl)-1,3-thiazole-4-carboxamide]	30 to 50	–
CCCN(C(=O)c1ccc(-c2cnn(-c3ccccc3)c2)o1)[C@@H]1CCNC1 [Compound 99, 5-(1-phenyl-1H-pyrazol-4-yl)-N-propyl-N-[(3R)-pyrrolidin-3-yl]furan-2-carboxamide]	50 to 100	activation at 0.8 µM [2]: 50 to 100%
CC(C)N(C(=O)c1ccc(-c2cnn(-c3ccccc3)c2)[nH]1)C1CCNCC1 [Compound 5, 5-(1-phenyl-1H-pyrazol-4-yl)-N-(piperidin-4-yl)-N-(propan-2-yl)-1H-pyrrole-2-carboxamide]	30 to 50	–
CCCN(C(=O)c1csc(-c2cnn(-c3ccccc3C)c2)n1)[C@H]1CCNC1 [Compound 87, 2-[1-(2-methylphenyl)-1H-pyrazol-4-yl]-N-propyl-N-[(3S)-pyrrolidin-3-yl]-1,3-thiazole-4-carboxamide]	10 to 30	–
O=C(NC[C@@H]1CNCCO1)c1csc(-c2cnn(-c3ccccc3)c2)n1 [Compound 107, N-{[(2S)-morpholin-2-yl]methyl}-2-(1-phenyl-1H-pyrazol-4-yl)-1,3-thiazole-4-carboxamide]	10 to 30	–
CC(C)N(C(=O)c1csc(-c2cnn(-c3ccncc3)c2)n1)C1CCNCC1 [Compound 322, N-(piperidin-4-yl)-N-(propan-2-yl)-2-[1-(pyridin-4-yl)-1H-pyrazol-4-yl]-1,3-thiazole-4-carboxamide]	–	acidic vesicle formation relative to a DMSO-treated control: only a slight increase; increase in acidic vesicle formation: only a slight increase
O=C(NCC1CCNCC1)c1csc(-c2cnn(-c3ccccc3)c2)n1 [Compound 177, 2-(1-phenyl-1H-pyrazol-4-yl)-N-[(piperidin-4-yl)methyl]-1,3-thiazole-4-carboxamide]	10 to 30	–
CCCN(C(=O)c1csc(-c2cnn(-c3cccc(F)c3)c2)n1)[C@@H]1CCNC1 [Compound 53, 2-[1-(3-fluorophenyl)-1H-pyrazol-4-yl]-N-propyl-N-[(3R)-pyrrolidin-3-yl]-1,3-thiazole-4-carboxamide]	10 to 30	–
CCCN(C(=O)c1csc(-c2cnn(-c3cccc(C(F)(F)F)c3)c2)n1)[C@@H]1CCNC1 [Compound 49, N-propyl-N-[(3R)-pyrrolidin-3-yl]-2-{1-[3-(trifluoromethyl)phenyl]-1H-pyrazol-4-yl}-1,3-thiazole-4-carboxamide]	30 to 50	–
NCCOCCNC(=O)c1cc(-c2cnn(-c3ccccc3)c2)cs1 [Compound 110, N-[2-(2-aminoethoxy)ethyl]-4-(1-phenyl-1H-pyrazol-4-yl)thiophene-2-carboxamide]	50 to 100	activation at 0.8 µM [2]: 50 to 100%
CCCN(C(=O)c1csc(-c2cnn(-c3ccccc3F)c2)n1)[C@H]1CCNC1 [Compound 92, 2-[1-(2-fluorophenyl)-1H-pyrazol-4-yl]-N-propyl-N-[(3S)-pyrrolidin-3-yl]-1,3-thiazole-4-carboxamide]	50 to 100	activation at 0.8 µM [2]: 50 to 100%
CCCN(C(=O)c1csc(-c2cnn(-c3cccc(Cl)c3)c2)n1)[C@H]1CCNC1 [Compound 31, 2-[1-(3-chlorophenyl)-1H-pyrazol-4-yl]-N-propyl-N-[(3S)-pyrrolidin-3-yl]-1,3-thiazole-4-carboxamide]	10 to 30	–
CCCN(C(=O)c1csc(-c2cnn(-c3ccccc3C(F)(F)F)c2)n1)[C@@H]1CCNC1 [Compound 83, N-propyl-N-[(3R)-pyrrolidin-3-yl]-2-{1-[2-(trifluoromethyl)phenyl]-1H-pyrazol-4-yl}-1,3-thiazole-4-carboxamide]	30 to 50	–
CCCN(C(=O)c1csc(-c2cnn(-c3ccccn3)c2)n1)[C@@H]1CCNC1 [Compound 44, N-propyl-2-[1-(pyridin-2-yl)-1H-pyrazol-4-yl]-N-[(3R)-pyrrolidin-3-yl]-1,3-thiazole-4-carboxamide]	10 to 30	–
CC(C)N(C(=O)c1csc(-c2cnn(-c3ccccc3)c2)n1)C1C2CNCC1C2 (centres unmarked) [Compound 317, N-{3-azabicyclo[3.1.1]heptan-6-yl}-2-(1-phenyl-1H-pyrazol-4-yl)-N-(propan-2-yl)-1,3-thiazole-4-carboxamide]	–	acidic vesicle formation relative to a DMSO-treated control: only a slight increase; increase in acidic vesicle formation: only a slight increase
CCCN(C(=O)c1csc(-c2cnn(-c3ccncc3)c2)n1)[C@@H]1CCNC1 [Compound 23, N-propyl-2-[1-(pyridin-4-yl)-1H-pyrazol-4-yl]-N-[(3R)-pyrrolidin-3-yl]-1,3-thiazole-4-carboxamide]	10 to 30	–
CC1CCCN(C(=O)c2csc(-c3cnn(-c4ccccc4)c3)n2)C1CN (centres unmarked) [Compound 153, 1-{3-methyl-1-[2-(1-phenyl-1H-pyrazol-4-yl)-1,3-thiazole-4-carbonyl]piperidin-2-yl}methanamine]	10 to 30	–
CC(C)N(C(=O)c1csc(-c2cnn(-c3cccnn3)c2)n1)C1CCNCC1 [Compound 323, N-(piperidin-4-yl)-N-(propan-2-yl)-2-[1-(pyridazin-3-yl)-1H-pyrazol-4-yl]-1,3-thiazole-4-carboxamide]	30 to 50	increase in acidic vesicle formation: only a slight increase
NCCNC(=O)c1csc(-c2cnn(-c3ccccc3)c2)n1 [Compound 162, N-(2-aminoethyl)-2-(1-phenyl-1H-pyrazol-4-yl)-1,3-thiazole-4-carboxamide]	10 to 30	–
CCCN(C(=O)c1csc(-c2cnc(-c3ccccc3)o2)n1)C1CCNC1 (centres unmarked) [Compound 116, 2-(2-phenyl-1,3-oxazol-5-yl)-N-propyl-]	50 to 100	activation at 0.8 µM [2]: 50 to 100%
